Earlier results in patent US20080286208A1, “Eye treatment” (priority 2001, published 2008).
“Also recorded” adds a separate entry of the source. Like-named read-outs stand apart in the source and are kept apart here.

Tested on: eye
Details: for Stinging when applied to the eye: applied to the eye in suitable dosage

Compound | Stinging when applied to the eye | Stinging when applied to the eye (listed as Rose bengal) | Toxicity to the eye (post instillation)
O=C([O-])c1c(Cl)c(Cl)c(Cl)c(Cl)c1-c1c2cc(I)c(=O)c(I)c-2oc2c(I)c([O-])c(I)cc12.[Na+].[Na+] [rose bengal] | may result in stinging and pain to an extent that can be disabling for hours post instillation; also recorded: may produce dose related stinging; also recorded: has been found to sting | has a sting potential | known to be toxic
CN(C)c1ccc(C(=C2C=CC(=[N+](C)C)C=C2)c2c(O)c(S(=O)(=O)[O-])cc3cc(S(=O)(=O)[O-])ccc23)cc1.[Na+] [Lissamine green] | without the disadvantages of toxicity and sting potential; also recorded: does not induce stinging; also recorded: does not significantly sting |  | 
